Assay results taken from ChEMBL document CHEMBL3875150, “Biological evaluation of some new N-(2,6-dimethoxypyrimidinyl) thioureido benzenesulfonamide derivatives as potential antimicrobial and anticancer agents” (Eur J Med Chem, 2016).
Converted amounts (≈) assume the structure as drawn.

Legend:
Streptococcus pneumoniae [1] = test: Antibacterial activity against Streptococcus pneumoniae RCMB 010010 after 24 to 48 hrs by agar well diffusion method; type: functional
MCF7 = test: (§1) Cytotoxicity against human MCF7 cells assessed as decrease in cell viability after 24 hrs by MTT assay; type: functional, cell-based
[2] = as §1; type: functional, cell-based; details: MCF7, 24 h
Pseudomonas aeruginosa [3] = test: Antibacterial activity against Pseudomonas aeruginosa RCMB 010043 after 24 to 48 hrs by agar well diffusion method; type: functional
Candida albicans [4] = test: Antifungal activity against Candida albicans RCMB 005036 assessed as diameter of inhibition zone at 1 mg/mL after 24 to 48 hrs by agar well diffusion method; type: functional; details: read-out: DIZ
Streptococcus pneumoniae [5] = test: Antibacterial activity against Streptococcus pneumoniae RCMB 010010 assessed as diameter of inhibition zone at 1 mg/mL after 24 to 48 hrs by agar well diffusion method; type: functional; details: read-out: DIZ
Escherichia coli [6] = test: Antibacterial activity against Escherichia coli RCMB 010052 after 24 to 48 hrs by agar well diffusion method; type: functional
Pseudomonas aeruginosa [7] = test: Antibacterial activity against Pseudomonas aeruginosa RCMB 010043 assessed as diameter of inhibition zone at 1 mg/mL after 24 to 48 hrs by agar well diffusion method; type: functional; details: read-out: DIZ
Bacillus subtilis [8] = test: Antibacterial activity against Bacillus subtilis RCMB 010067 assessed as diameter of inhibition zone at 1 mg/mL after 24 to 48 hrs by agar well diffusion method; type: functional; details: read-out: DIZ
Escherichia coli [9] = test: Antibacterial activity against Escherichia coli RCMB 010052 assessed as diameter of inhibition zone at 1 mg/mL after 24 to 48 hrs by agar well diffusion method; type: functional; details: read-out: DIZ
Candida albicans [10] = test: Antifungal activity against Candida albicans RCMB 005036 after 24 to 48 hrs by agar well diffusion method; type: functional
Aspergillus fumigatus [11] = test: Antifungal activity against Aspergillus fumigatus RCMB 002568 assessed as diameter of inhibition zone at 1 mg/mL after 48 hrs by agar well diffusion method; type: functional; details: RCMB 002568, 48 h, read-out: DIZ
Bacillus subtilis [12] = test: Antibacterial activity against Bacillus subtilis RCMB 010067 after 24 to 48 hrs by agar well diffusion method; type: functional
Aspergillus fumigatus [13] = test: Antifungal activity against Aspergillus fumigatus RCMB 002568 after 24 to 48 hrs by agar well diffusion method; type: functional

| SMILES | MIC (Streptococcus pneumoniae [1]) [µg/mL] | Activity (MCF7) | IC50 [2] [µg/mL] | MIC (Pseudomonas aeruginosa [3]) [µg/mL] | zone of inhibition at 1000 µg/mL (Candida albicans [4]) [mm] | zone of inhibition at 1000 µg/mL (Streptococcus pneumoniae [5]) [mm] | MIC (Escherichia coli [6]) [µg/mL] | zone of inhibition at 1000 µg/mL (Pseudomonas aeruginosa [7]) [mm] | zone of inhibition at 1000 µg/mL (Bacillus subtilis [8]) [mm] | zone of inhibition at 1000 µg/mL (Escherichia coli [9]) [mm] | MIC (Candida albicans [10]) [µg/mL] | zone of inhibition at 1000 µg/mL (Aspergillus fumigatus [11]) [mm] | MIC (Bacillus subtilis [12]) [µg/mL] | MIC (Aspergillus fumigatus [13]) [µg/mL] |
| --- | --- | --- | --- | --- | --- | --- | --- | --- | --- | --- | --- | --- | --- | --- |
| COc1cc(NS(=O)(=O)c2ccc(NC(=S)Nc3cc(=O)[nH]c(=O)[nH]3)cc2)nc(OC)n1 | 1.95 (≈ 4.07 µM) | Dose-dependent effect | 37.3 (≈ 77.8 µM) | 500 (≈ 1040 µM) | 20.1 | 22.3 | 0.98 (≈ 2.04 µM) | 8.5 | 26.1 | 24.3 | 3.9 (≈ 8.13 µM) | 21.3 | 0.98 (≈ 2.04 µM) | 3.9 (≈ 8.13 µM) |
| COc1cc(NS(=O)(=O)c2ccc(NC(=S)Nc3nccc4ccccc34)cc2)nc(OC)n1 |  | Dose-dependent effect | > 200 |  |  |  |  |  |  |  |  |  |  |  |
| COc1cc(NS(=O)(=O)c2ccc(NC(=S)Nc3ccncc3)cc2)nc(OC)n1 | 62.5 (≈ 140 µM) | Dose-dependent effect | 168 (≈ 376 µM) | > 1000 | 13.9 | 15.3 | 125 (≈ 280 µM) |  | 15.9 | 13.2 | 125 (≈ 280 µM) | 15.6 | 62.5 (≈ 140 µM) | 62.5 (≈ 140 µM) |
| COc1cc(NS(=O)(=O)c2ccc(NC(=S)Nc3nc4cc(C)c(C)cc4s3)cc2)nc(OC)n1 | 1.95 (≈ 3.67 µM) | Dose-dependent effect | 93.9 (≈ 177 µM) | 250 (≈ 471 µM) | 21.4 | 22.7 | 0.98 (≈ 1.85 µM) | 10.3 | 25.3 | 26.3 | 3.9 (≈ 7.35 µM) | 23.3 | 0.98 (≈ 1.85 µM) | 1.95 (≈ 3.67 µM) |
| COc1cc(NS(=O)(=O)c2ccc(NC(=S)Nc3c(C)n(C)n(-c4ccccc4)c3=O)cc2)nc(OC)n1 |  | Dose-dependent effect | 113 (≈ 203 µM) |  | 12.6 |  |  |  |  |  |  | 13.6 |  |  |
| C[C@@H]1[C@H](O)[C@@H](C)/C=C/C=C/C=C/C=C/C=C/C=C/C=C/[C@H](O[C@@H]2O[C@H](C)[C@@H](O)[C@H](N)[C@@H]2O)C[C@@H]2O[C@](O)(C[C@@H](O)C[C@@H](O)[C@H](O)CC[C@@H](O)C[C@@H](O)CC(=O)O[C@H]1C)C[C@H](O)[C@H]2C(=O)O [AMPHOTERICIN B] |  |  |  |  | 25.4 |  |  |  |  |  | 3.9 (≈ 4.22 µM) | 23.7 |  | 1.95 (≈ 2.11 µM) |
| COc1cc(NS(=O)(=O)c2ccc(NC(=S)Nc3nc(C)cc(C)n3)cc2)nc(OC)n1 |  | Dose-dependent effect | 82.9 (≈ 174 µM) |  |  |  |  |  |  |  |  |  |  |  |
| COc1cc(NS(=O)(=O)c2ccc(NC(=S)Nc3ccc4c(C)cc(=O)oc4c3)cc2)nc(OC)n1 | 3.9 (≈ 7.39 µM) | Dose-dependent effect | 35.2 (≈ 66.7 µM) | 125 (≈ 237 µM) | 18.1 | 20.6 | 1.95 (≈ 3.7 µM) | 10.6 | 23.4 | 23.4 | 7.81 (≈ 14.8 µM) | 20.3 | 1.95 (≈ 3.7 µM) | 3.9 (≈ 7.39 µM) |
| CCn1c2ccccc2c2cc(NC(=S)Nc3ccc(S(=O)(=O)Nc4cc(OC)nc(OC)n4)cc3)ccc21 |  | Dose-dependent effect | 143 (≈ 254 µM) |  | 12.1 |  |  |  |  |  |  | 10.3 |  |  |
| COc1cc(NS(=O)(=O)c2ccc(NC(=S)Nc3cc(=O)n(C)c(=O)n3C)cc2)nc(OC)n1 | 7.81 (≈ 15.4 µM) | Dose-dependent effect | 96.1 (≈ 189 µM) | 500 (≈ 985 µM) | 13.8 | 17.9 | 3.9 (≈ 7.68 µM) | 8.1 | 18.5 | 19.1 | 125 (≈ 246 µM) | 15.7 | 3.9 (≈ 7.68 µM) | 62.5 (≈ 123 µM) |
| COc1cc(NS(=O)(=O)c2ccc(NC(=S)Nc3nc4c(OC)cccc4s3)cc2)nc(OC)n1 | 7.81 (≈ 14.7 µM) | Dose-dependent effect | 47.6 (≈ 89.4 µM) | 500 (≈ 939 µM) | 13.2 | 17.8 | 62.5 (≈ 117 µM) | 8.9 | 18.3 | 16.2 | 125 (≈ 235 µM) | 16.4 | 7.81 (≈ 14.7 µM) | 7.81 (≈ 14.7 µM) |
| O=c1[nH]cc(F)c(=O)[nH]1 [FLUOROURACIL] |  | Dose-dependent effect | 4.8 (≈ 36.9 µM) |  |  |  |  |  |  |  |  |  |  |  |
